Test results as given in BigSolDB 2.1.

O=C(O)/C=C/c1ccc(Cl)cc1
solubility (mole fraction)
Details	283.15 K	288.15 K	293.15 K	298.15 K	303.15 K	308.15 K	313.15 K	318.15 K	323.15 K
in 1,4-dioxane	–	0.00826	0.0094	0.0106	0.0118	0.0132	0.0148	0.0158	0.018
in acetone	0.00214	0.00248	0.00303	0.00334	0.00388	0.00434	0.00509	0.00556	0.00654
in acetonitrile	0.000318	0.000351	0.000365	0.000425	0.000468	0.000515	0.000622	0.000803	0.00105
in ethanol	0.00136	0.00166	0.00184	0.00207	0.00238	0.00265	0.00317	0.00363	0.004
in ethyl acetate	0.00159	0.00166	0.0019	0.00214	0.00242	0.00266	0.00315	0.00379	0.00442
in isobutanol	0.00102	0.00125	0.00154	0.00177	0.00195	0.00223	0.00244	0.00282	0.00325
in isopropanol	0.00118	0.00141	0.00165	0.0019	0.00215	0.00255	0.0029	0.00359	0.00454
in methanol	0.00112	0.00123	0.00136	0.00155	0.00172	0.00187	0.00206	0.00233	0.00251
in methyl acetate	0.00142	0.00173	0.00201	0.00231	0.00262	0.00298	0.0033	0.00355	0.0038
in n-butanol	0.00123	0.00154	0.00184	0.00219	0.00249	0.00283	0.00314	0.0037	0.00427
in n-propanol	0.0012	0.00146	0.00177	0.002	0.00234	0.00266	0.00308	0.00361	0.00432
in water	5.3e-06	6.88e-06	8.16e-06	9.38e-06	1.16e-05	1.26e-05	1.51e-05	1.74e-05	2.06e-05
